# Assay results published in ChEMBL document CHEMBL4049404, “Discovery of (R)-1-(3-(4-Amino-3-(3-chloro-4-(pyridin-2-ylmethoxy)phenyl)-1H-pyrazolo[3,4-d]pyrimidin-1-yl)piperidin-1-yl)prop-2-en-1-one (CHMFL-EGFR-202) as a Novel Irreversible EGFR Mutant Kinase Inhibitor with a Distinct Binding Mode” (J Med Chem, 2017).
# Key:
# [1] = molecular target: T1, Epidermal growth factor receptor (Homo sapiens, UniProt P00533, EX19DEL); assay: Inhibition of EGFR exon 19 deletion mutant in human HCC827 cells assessed as reduction in ERK phosphorylation at Thr202/Tyr204 measured after 4 hrs by Western blot analysis; type: cell-based
# T1 sequence (P00533 whole entry, looked up, stated change not applied): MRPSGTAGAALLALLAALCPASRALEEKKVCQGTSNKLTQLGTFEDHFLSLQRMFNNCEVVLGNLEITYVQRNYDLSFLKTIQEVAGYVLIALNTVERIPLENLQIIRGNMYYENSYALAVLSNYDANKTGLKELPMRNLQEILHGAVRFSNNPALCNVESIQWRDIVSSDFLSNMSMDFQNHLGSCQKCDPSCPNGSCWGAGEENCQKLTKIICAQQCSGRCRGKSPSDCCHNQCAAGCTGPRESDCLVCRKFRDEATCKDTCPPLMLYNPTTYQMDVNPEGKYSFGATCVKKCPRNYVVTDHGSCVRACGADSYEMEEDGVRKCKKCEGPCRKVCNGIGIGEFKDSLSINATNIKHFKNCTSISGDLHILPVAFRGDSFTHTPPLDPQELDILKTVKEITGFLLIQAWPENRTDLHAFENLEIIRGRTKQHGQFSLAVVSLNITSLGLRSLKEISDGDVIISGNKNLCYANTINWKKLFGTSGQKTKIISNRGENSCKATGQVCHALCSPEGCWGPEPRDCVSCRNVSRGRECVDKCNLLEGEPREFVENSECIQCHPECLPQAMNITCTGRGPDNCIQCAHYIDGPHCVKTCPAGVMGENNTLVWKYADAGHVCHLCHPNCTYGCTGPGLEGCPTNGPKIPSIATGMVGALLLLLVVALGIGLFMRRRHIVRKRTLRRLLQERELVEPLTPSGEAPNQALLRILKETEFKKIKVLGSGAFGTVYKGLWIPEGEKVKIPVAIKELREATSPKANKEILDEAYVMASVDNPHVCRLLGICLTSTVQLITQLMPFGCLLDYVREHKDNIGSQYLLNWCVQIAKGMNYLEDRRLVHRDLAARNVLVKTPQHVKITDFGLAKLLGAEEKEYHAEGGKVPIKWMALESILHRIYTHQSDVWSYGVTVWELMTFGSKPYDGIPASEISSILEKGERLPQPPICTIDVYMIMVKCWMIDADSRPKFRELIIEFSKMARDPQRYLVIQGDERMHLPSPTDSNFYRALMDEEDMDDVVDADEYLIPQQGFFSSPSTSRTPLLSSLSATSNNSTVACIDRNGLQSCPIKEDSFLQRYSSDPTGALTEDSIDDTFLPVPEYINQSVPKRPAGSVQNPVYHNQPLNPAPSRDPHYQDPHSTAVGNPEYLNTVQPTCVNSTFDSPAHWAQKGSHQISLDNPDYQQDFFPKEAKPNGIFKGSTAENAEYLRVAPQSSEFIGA
# [2] = molecular target: T2, Receptor tyrosine-protein kinase erbB-2 (Homo sapiens, UniProt P04626); assay: Binding affinity to wild-type human ERBB2 expressed in mammalian system assessed as control score at 1 uM by KINOMEScan assay
# T2 sequence (P04626 whole entry): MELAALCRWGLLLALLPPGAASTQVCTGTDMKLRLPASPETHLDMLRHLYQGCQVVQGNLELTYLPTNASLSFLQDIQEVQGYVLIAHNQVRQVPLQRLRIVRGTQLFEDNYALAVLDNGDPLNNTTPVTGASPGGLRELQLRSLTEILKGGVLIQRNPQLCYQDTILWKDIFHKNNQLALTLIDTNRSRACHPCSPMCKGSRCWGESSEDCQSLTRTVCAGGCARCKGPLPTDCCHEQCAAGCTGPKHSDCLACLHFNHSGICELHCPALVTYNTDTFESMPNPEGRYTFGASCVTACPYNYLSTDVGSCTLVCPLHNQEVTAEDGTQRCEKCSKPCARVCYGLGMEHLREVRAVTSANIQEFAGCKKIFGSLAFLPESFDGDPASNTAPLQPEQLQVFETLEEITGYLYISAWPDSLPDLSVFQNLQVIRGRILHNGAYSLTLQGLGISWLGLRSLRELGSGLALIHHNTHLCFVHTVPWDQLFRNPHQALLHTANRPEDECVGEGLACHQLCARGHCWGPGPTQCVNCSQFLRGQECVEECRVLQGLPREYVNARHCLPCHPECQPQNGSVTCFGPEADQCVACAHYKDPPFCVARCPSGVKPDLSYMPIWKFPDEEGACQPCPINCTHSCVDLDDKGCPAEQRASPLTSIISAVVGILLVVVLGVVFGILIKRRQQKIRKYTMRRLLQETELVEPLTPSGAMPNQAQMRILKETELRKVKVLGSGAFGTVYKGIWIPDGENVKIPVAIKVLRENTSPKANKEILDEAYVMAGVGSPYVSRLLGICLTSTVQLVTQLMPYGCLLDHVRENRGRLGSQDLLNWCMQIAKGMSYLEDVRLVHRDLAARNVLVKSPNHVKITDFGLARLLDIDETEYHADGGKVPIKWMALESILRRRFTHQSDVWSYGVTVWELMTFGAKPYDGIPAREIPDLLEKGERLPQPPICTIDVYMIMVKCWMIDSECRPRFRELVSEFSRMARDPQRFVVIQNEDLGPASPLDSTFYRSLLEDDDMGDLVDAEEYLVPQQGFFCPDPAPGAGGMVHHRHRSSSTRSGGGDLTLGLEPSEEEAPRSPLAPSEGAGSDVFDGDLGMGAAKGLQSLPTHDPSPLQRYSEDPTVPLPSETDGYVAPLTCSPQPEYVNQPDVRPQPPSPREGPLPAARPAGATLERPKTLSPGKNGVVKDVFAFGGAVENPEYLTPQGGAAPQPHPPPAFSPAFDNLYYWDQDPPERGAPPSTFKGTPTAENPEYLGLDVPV
# [3] = molecular target: T3, Epidermal growth factor receptor (Homo sapiens, UniProt P00533); assay: Inhibition of wild type EGFR autophosphorylation at Y1068 in human A549 cells at 0.01 to 3 uM after 4 hrs by Western blot analysis; type: cell-based; conditions: a549, 4 h
# T3 sequence (P00533 whole entry): as the sequence (P00533 whole entry, looked up, stated change not applied) above
# [4] = Apparent plasma clearance in Sprague-Dawley rat at 1 mg/kg, iv after 8 hrs; type: ADME, organism-based
# [5] = molecular target: T3, Epidermal growth factor receptor; assay: Inhibition of wild type EGFR autophosphorylation at Y1068 in human NCI-H2122 cells at 0.01 to 3 uM after 4 hrs by Western blot analysis; type: cell-based
# [6] = molecular target: T1, Epidermal growth factor receptor; assay: Inhibition of EGFR exon 19 deletion mutant in human PC9 cells assessed as reduction in ERK phosphorylation at Thr202/Tyr204 measured after 4 hrs by Western blot analysis; type: cell-based
# [7] = molecular target: T4, Tyrosine-protein kinase BTK (Homo sapiens, UniProt Q06187); assay: Inhibition of full-length recombinant human His-tagged BTK cytoplasmic domain expressed in baculovirus by Z'-LYTE assay
# T4 sequence (Q06187 whole entry, the tested form may be a part): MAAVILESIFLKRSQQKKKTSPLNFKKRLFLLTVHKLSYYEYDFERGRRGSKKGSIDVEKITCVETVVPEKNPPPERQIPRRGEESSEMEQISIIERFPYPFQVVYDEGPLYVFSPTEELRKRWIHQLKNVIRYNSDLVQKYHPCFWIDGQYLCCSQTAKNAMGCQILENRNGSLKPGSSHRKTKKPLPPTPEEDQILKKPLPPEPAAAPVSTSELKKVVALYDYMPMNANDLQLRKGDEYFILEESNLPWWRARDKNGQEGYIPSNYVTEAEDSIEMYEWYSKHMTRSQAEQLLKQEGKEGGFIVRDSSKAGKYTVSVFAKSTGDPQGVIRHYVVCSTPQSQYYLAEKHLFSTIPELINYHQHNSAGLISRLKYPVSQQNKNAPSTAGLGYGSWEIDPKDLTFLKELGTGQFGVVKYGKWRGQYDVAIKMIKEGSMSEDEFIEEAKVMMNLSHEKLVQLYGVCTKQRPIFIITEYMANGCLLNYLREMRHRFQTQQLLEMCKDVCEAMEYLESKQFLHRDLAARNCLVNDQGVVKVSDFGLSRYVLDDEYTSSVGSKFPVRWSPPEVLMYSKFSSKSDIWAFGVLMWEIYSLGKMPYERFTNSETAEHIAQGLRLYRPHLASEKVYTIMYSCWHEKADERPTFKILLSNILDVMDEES
# [8] = MRT (0 to infinity) in Sprague-Dawley rat plasma at 10 mg/kg, po after 24 hrs; type: ADME, organism-based
# [9] = molecular target: T3, Epidermal growth factor receptor; assay: Inhibition of Tel-fused EGFR (unknown origin) expressed in mouse BAF3 cells assessed as growth inhibition after 72 hrs by CellTiter-Glo assay; type: cell-based
# [10] = molecular target: T3, Epidermal growth factor receptor; assay: Inhibition of wild-type EGFR in human NCI-H2122 cells assessed as reduction in 4EBP1 phosphorylation at Thr37/46 site at 0.01 to 3 uM by Western blot analysis; type: cell-based
# [11] = molecular target: T3, Epidermal growth factor receptor; assay: Inhibition of wild-type EGFR in human NCI-H2122 cells assessed as reduction in Akt phosphorylation at 308 site at 0.01 to 3 uM by Western blot analysis; type: cell-based
# [12] = Tmax in Sprague-Dawley rat plasma at 10 mg/kg, po after 24 hrs; type: ADME, organism-based
# [13] = molecular target: Receptor tyrosine-protein kinase erbB-4 (Homo sapiens, UniProt Q15303); assay: Inhibition of recombinant human N-terminal GST-tagged ERBB4 cytoplasmic domain (708 to 993 residues) expressed in baculovirus by Z'-LYTE assay
# [14] = Apparent plasma clearance in Sprague-Dawley rat after 24 hrs at 10 mg/kg, po; type: ADME, organism-based
# [15] = molecular target: T3, Epidermal growth factor receptor; assay: Inhibition of wild-type EGFR in human A549 cells assessed as reduction in Akt phosphorylation at 308 site at 0.01 to 3 uM by Western blot analysis; type: cell-based; conditions: a549, 3 µM
# [16] = molecular target: T4, Tyrosine-protein kinase BTK; assay: Binding affinity to full-length wild-type human BTK expressed in mammalian system assessed as control score at 1 uM by KINOMEScan assay
# [17] = Half life in Sprague-Dawley rat plasma at 10 mg/kg, po after 24 hrs; type: ADME, organism-based
# [18] = molecular target: Insulin-like growth factor 1 receptor (Homo sapiens) (UniProt P08069); assay: Inhibition of Tel-fused IGF1R (unknown origin) expressed in mouse BAF3 cells assessed as growth inhibition after 72 hrs by CellTiter-Glo assay; type: cell-based
# [19] = molecular target: T3, Epidermal growth factor receptor; assay: Inhibition of wild-type EGFR in human A549 cells assessed as reduction in STAT3 phosphorylation at Y705 site at 0.01 to 3 uM by Western blot analysis; type: cell-based; conditions: a549, 3 µM
# [20] = molecular target: T3, Epidermal growth factor receptor; assay: Inhibition of wild-type EGFR in human A549 cells assessed as reduction in Akt phosphorylation at 473 site at 0.01 to 3 uM by Western blot analysis; type: cell-based; conditions: a549, 3 µM
# [21] = molecular target: T2, Receptor tyrosine-protein kinase erbB-2; assay: Inhibition of recombinant human […] ERBB2 cytoplasmic domain (676 to 1255 residues) expressed in baculovirus by Z'-LYTE assay
# [22] = molecular target: Serine/threonine-protein kinase 10 (Homo sapiens) (UniProt O94804); assay: Binding affinity to wild-type human LOK expressed in bacterial system assessed as control score at 1 uM by KINOMEScan assay
# [23] = Tmax in Sprague-Dawley rat plasma at 1 mg/kg, iv after 8 hrs; type: ADME, organism-based
# [24] = molecular target: T3, Epidermal growth factor receptor; assay: Inhibition of wild-type EGFR in human A549 cells assessed as growth inhibition after 72 hrs by CellTiter-Glo assay; type: cell-based; conditions: a549, 72 h
# [25] = MRT (0 to infinity) in Sprague-Dawley rat plasma at 1 mg/kg, iv after 8 hrs; type: ADME, organism-based
# [26] = molecular target: T3, Epidermal growth factor receptor; assay: Inhibition of wild-type EGFR in human H1355 cells assessed as growth inhibition after 72 hrs by CellTiter-Glo assay; type: cell-based
# [27] = molecular target: T5, Epidermal growth factor receptor (Homo sapiens, UniProt P00533, L858R/T790M); assay: Inhibition of EGFR T790M/L858R mutant (unknown origin) autophosphorylation at Y1068 expressed in mouse BAF3 cells after 4 hrs by Western blot analysis; type: cell-based
# [28] = molecular target: T3, Epidermal growth factor receptor; assay: Inhibition of wild-type EGFR in human NCI-H2122 cells assessed as reduction in ERK phosphorylation at Thr202/Tyr204 site at 0.01 to 3 uM by Western blot analysis; type: cell-based
# [29] = molecular target: T3, Epidermal growth factor receptor; assay: Inhibition of recombinant human GST-tagged EGFR cytoplasmic domain expressed in baculovirus by Z'-LYTE assay
# Rattus norvegicus [30] = assay: AUC (0 to infinity) in Sprague-Dawley rat plasma at 10 mg/kg, po after 24 hrs; type: ADME, organism-based; design: dose 10 mg/kg, time infinity, route oral; conditions: in vivo
# [31] = molecular target: Dual specificity mitogen-activated protein kinase kinase 1 (Homo sapiens, UniProt Q02750); assay: Binding affinity to full-length human MEK1 expressed in mammalian system assessed as control score at 1 uM by KINOMEScan assay
# [32] = molecular target: Dual specificity mitogen-activated protein kinase kinase 5 (Homo sapiens) (UniProt Q13163); assay: Binding affinity to wild-type human MEK5 expressed in mammalian system assessed as control score at 1 uM by KINOMEScan assay
# Dual specificity mitogen-activated protein kinase kinase 5 (Homo sapiens), sequence (Q13163 whole entry): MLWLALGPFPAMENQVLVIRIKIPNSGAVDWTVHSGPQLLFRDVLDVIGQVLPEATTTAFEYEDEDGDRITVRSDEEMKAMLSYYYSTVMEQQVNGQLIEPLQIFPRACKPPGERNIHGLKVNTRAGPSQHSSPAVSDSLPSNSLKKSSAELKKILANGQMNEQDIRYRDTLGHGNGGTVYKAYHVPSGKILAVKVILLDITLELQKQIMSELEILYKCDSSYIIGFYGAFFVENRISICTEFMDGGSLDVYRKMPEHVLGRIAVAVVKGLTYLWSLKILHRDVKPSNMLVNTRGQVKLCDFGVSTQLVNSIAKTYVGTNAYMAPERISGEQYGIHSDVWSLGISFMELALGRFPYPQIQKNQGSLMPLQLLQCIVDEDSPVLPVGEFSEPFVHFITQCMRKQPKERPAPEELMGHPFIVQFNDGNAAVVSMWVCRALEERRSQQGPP
# [33] = molecular target: T5, Epidermal growth factor receptor; assay: Inhibition of EGFR L858R/T790M mutant in human NCI-H1975 cells assessed as reduction in ERK phosphorylation at Thr202/Tyr204 measured after 4 hrs by Western blot analysis; type: cell-based
# [34] = molecular target: Insulin receptor (Homo sapiens) (UniProt P06213); assay: Inhibition of Tel-fused INSR (unknown origin) expressed in mouse BAF3 cells assessed as growth inhibition after 72 hrs by CellTiter-Glo assay; type: cell-based
# [35] = Half life in Sprague-Dawley rat plasma at 1 mg/kg, iv after 8 hrs; type: ADME, organism-based
# [36] = molecular target: T3, Epidermal growth factor receptor; assay: Inhibition of wild-type EGFR in human A549 cells assessed as reduction in eIF4E phosphorylation at Ser209 site at 0.01 to 3 uM by Western blot analysis; type: cell-based; conditions: a549, 3 µM
# Rattus norvegicus [37] = assay: AUC (0 to infinity) in Sprague-Dawley rat plasma at 1 mg/kg, iv after 8 hrs; type: ADME, organism-based; design: dose 1 mg/kg, route intravenous, time infinity; conditions: in vivo
# Rattus norvegicus [38] = assay: AUC (0 to t) in Sprague-Dawley rat plasma at 1 mg/kg, iv after 8 hrs; type: ADME, organism-based; design: time < 8 hr, dose 1 mg/kg, route intravenous; conditions: in vivo
smiles,measurement,setting,value
C=CC(=O)N1CCC[C@@H](n2nc(-c3ccc(OCc4ccccn4)c(Cl)c3)c3c(N)ncnc32)C1,EC50,[1],< 10 nM
same,Activity,[2],0%
same,inhibition (INH),[3],Active
same,clearance,[4],41.3 mL/min/kg
same,inhibition (INH),[5],Active
same,EC50,[6],< 10 nM
same,IC50,[7],24.5 nM
same,MRT inf,[8],153 min
same,GI50,[9],2000 nM
same,inhibition (INH),[10],Not Active
same,inhibition (INH),[11],Not Active
same,Tmax,[12],34.8 min
same,IC50,[13],3.2 nM
same,CL/F,[14],406 mL/min/kg
same,inhibition (INH),[15],Not Active
same,Activity,[16],0.05%
same,half-life,[17],117 min
same,GI50,[18],> 10000 nM
same,inhibition (INH),[19],Not Active
same,inhibition (INH),[20],Not Active
same,IC50,[21],8.1 nM
same,Activity,[22],0.95%
same,Tmax,[23],1.02 min
same,GI50,[24],> 10000 nM
same,MRT inf,[25],12.6 min
same,GI50,[26],> 10000 nM
same,EC50,[27],7 nM
same,inhibition (INH),[28],Not Active
same,IC50,[29],8.3 nM
same,AUC,Rattus norvegicus [30],441 ng·h/mL
same,Activity,[31],0.4%
same,Activity,[32],0.1%
same,EC50,[33],< 10 nM
same,GI50,[34],3500 nM
same,half-life,[35],18 min
same,inhibition (INH),[36],Not Active
same,AUC,Rattus norvegicus [37],405 ng·h/mL
same,AUCt,Rattus norvegicus [38],404 to 2340 ng/mL/h
